US20090029983A1, “NOVEL HETEROCYCLIC COMPOUNDS HAVING ANTI-HBV ACTIVITY” (priority 2005, published 2009)

System: HBV
Assay: HBV screening assay (viral DNA in baculovirus-HBV transduced HepG2 cells)
Assay type: cell-based
Conditions: Hepatitis B virus, HepG2, 72 h, read-out: EC50 (antiviral activity), HBV-transduced HepG2 cells, three days with compound, viral DNA by ELISA
Description: HepG2 cells were transduced using a baculovirus to deliver the HBV genome essentially as previously described (Delaney et al. in Hepatology 1998; 28: 1134-1146). Transduced cells were cultured in supplemented EMEM media with 10% fetal bovine serum in a 5% CO2 incubator at 37° C. for three days in the presence of test compounds. The cells were lysed in a buffer containing 0.5% NP-40 and […] proteinase K. A solid-phase hybridization was performed to capture the viral DNA and to label the target DNA with Digoxigenin-labeled DNA probes. The viral DNA was detected by ELISA, using horseradish peroxidase-conjugated anti-digoxigenin antibodies.
The EC50 values were determined using ExcelFit software from the inhibition values of a titration curve for each compound. For CC50 determinations, the same titration of compounds was co-cultured with non-transduced HepG2 for three days under the conditions described above. The Promega CellTiter 96 Aqueous One Solution Cell Proliferation Assay was used to measure cell proliferation/viability. The CC50 values were determined using ExcelFit software from the inhibition values of the titration curve for each compound.

Structure (SMILES)	EC50
CC(C)(C)OC(=O)N1Cc2nc3sc(C(N)=O)c(N)c3c(-c3cccs3)c2C1 [Compound 1, 3-Amino-6-tert-butyloxycarbonyl-4-thiophen-2-yl-6,7-dihydro-5H-1-thia-6,8-diaza-s-indacene-2-carboxylic acid amide]	> 10 µM
NC(=O)c1sc2nc3c(c(-c4cccs4)c2c1N)CNC3 [Compound 2, 3-Amino-4-thiophen-2-yl-6,7-dihydro-5H-1-thia-6,8-diaza-s-indacene-2-carboxylic acidamide]	1 to 10 µM
NC(=O)c1sc2nc3c(c(-c4cccs4)c2c1N)CN(CCCCl)C3 [Compound 3, 3-Amino-6-(3-chloro-propyl)-4-thiophen-2-yl-6,7-dihydro-5H-1-thia-6,8-diaza-s-indacene-2-carboxylic acid amide]	1 to 10 µM
NC(=O)c1sc2nc3c(c(-c4cccs4)c2c1N)CN(CC1CCCCO1)C3 (stereo not shown) [Compound 4, 3-Amino-6-(tetrahydro-pyran-2-ylmethyl)-4-thiophen-2-yl-6,7-dihydro-5H-1-thia-6,8-diaza-s-indacene-2-carboxylic acid amide]	> 10 µM
COc1ccccc1-c1nc(CN2Cc3nc4sc(C(N)=O)c(N)c4c(-c4cccs4)c3C2)no1 [Compound 5, 3-Amino-6-[5-(2-methoxy-phenyl)-[1,2,4]oxadiazol-3-ylmethyl]-4-thiophen-2-yl-6,7-dihydro-5H-1-thia-6,8-diaza-s-indacene-2-carboxylic acid amide]	1 to 10 µM
CC(C)CCN1Cc2nc3sc(C(N)=O)c(N)c3c(-c3cccs3)c2C1 [Compound 6, 3-Amino-6-(3-methyl-butyl)-4-thiophen-2-yl-6,7-dihydro-5H-1-thia-6,8-diaza-s-indacene-2-carboxylic aicd amide]	> 10 µM
NC(=O)c1sc2nc3c(c(-c4cccs4)c2c1N)CN(Cc1ccccn1)C3 [Compound 7, 3-Amino-6-pyridin-2-ylmethyl-4-thiophen-2-yl-6,7-dihydro-5H-1-thia-6,8-diaza-s-indacene-2-carboxylic acid amide]	> 10 µM
NC(=O)c1sc2nc3c(c(-c4cccs4)c2c1N)CN(CC1CC1)C3 [Compound 8, 3-Amino-6-cyclopropylmethyl-4-thiophen-2-yl-6,7-dihydro-5H-1-thia-6,8-diaza-s-indacene-2-carboxylic acid amide]	> 10 µM
NC(=O)c1sc2nc3c(c(-c4cccs4)c2c1N)CN(CCOC(=O)c1ccccc1)C3 [Compound 9, 3-Amino-6-(2-benzoyloxy-ethyl)-4-thiophen-2-yl-6,7-dihydro-5H-1-thia-6,8-diaza-s-indacene-2-carboxylic acid amide]	1 to 10 µM
NC(=O)c1sc2nc3c(c(-c4cccs4)c2c1N)CN(CCc1ccccc1)C3 [Compound 10, 3-Amino-6-phenethyl-4-thiophen-2-yl-6,7-dihydro-5H-1-thia-6,8-diaza-s-indacene-2-carboxylic acid amide]	> 10 µM
NC(=O)c1sc2nc3c(c(-c4cccs4)c2c1N)CN(CC1CCCCC1)C3 [Compound 11, 3-Amino-6-cyclohexylmethyl-4-thiophen-2-yl-6,7-dihydro-5H-1-thia-6,8-diaza-s-indacene-2-carboxylic acid amide]	1 to 10 µM
NC(=O)c1sc2nc3c(c(-c4cccs4)c2c1N)CN(CC(=O)c1ccc(Cl)cc1)C3 [Compound 12, 3-Amino-6-[2-(4-chloro-phenyl)-2-oxo-ethyl]-4-thiophen-2-yl-6,7-dihydro-5H-1-thia-6,8-diaza-s-indacene-2-carboxylic acidamide]	1 to 10 µM
CC(CO)CN1Cc2nc3sc(C(N)=O)c(N)c3c(-c3cccs3)c2C1 (stereo not shown) [Compound 13, 3-Amino-6-(3-hydroxy-2-methyl-propyl)-4-thiophen-2-yl-6,7-dihydro-5H--thia-6,8-diaza-s-indacene-2-carboxylic acid amide]	1 to 10 µM
CC(C)CN1Cc2nc3sc(C(N)=O)c(N)c3c(-c3cccs3)c2C1 [Compound 14, 3-Amino-6-isobutyl-4-thiophen-2-yl-6,7-dihydro-5H-1-thia-6,8-diaza-s-indacene-2-carboxylic acid amide]	> 10 µM
NC(=O)c1sc2nc3c(c(-c4cccs4)c2c1N)CN(CCO)C3 [Compound 15, 3-Amino-6-(2-hydroxy-ethyl)-4-thiophen-2-yl-6,7-dihydro-5H-1-thia-6,8-diaza-s-indacene-2-carboxylic acid amide]	1 to 10 µM
CCCCCN1Cc2nc3sc(C(N)=O)c(N)c3c(-c3cccs3)c2C1 [Compound 16, 3-Amino-6-pentyl-4-thiophen-2-yl-6,7-dihydro-5H-1-thia-6,8-diaza-s-indacene-2-carboxylic acid amide]	> 10 µM
COCCN1Cc2nc3sc(C(N)=O)c(N)c3c(-c3cccs3)c2C1 [Compound 17, 3-Amino-6-(2-methoxy-ethyl)-4-thiophen-2-yl-6,7-dihydro-5H-1-thia-6,8-diaza-s-indacene-2-carboxylic acid amide]	> 10 µM
CCOC(=O)CN1Cc2nc3sc(C(N)=O)c(N)c3c(-c3cccs3)c2C1 [Compound 18, 3-Amino-6-carbethoxymethyl-4-thiophen-2-yl-6,7-dihydro-5H-1-thia-6,8-diaza-s-indacene-2-carboxylic acid amide]	> 10 µM
NC(=O)c1sc2nc3c(c(-c4cccs4)c2c1N)CN(CCN1C(=O)c2ccccc2C1=O)C3 [Compound 19, 3-Amino-6-[2-(1,3-dioxo-1,3-dihydro-isoindol-2-yl)-ethyl]-4-thiophen-2-yl-6,7-dihydro-5H-1-thia-6,8-diaza-s-indacene-2-carboxylic acid amide]	> 10 µM
NC(=O)c1sc2nc3c(c(-c4cccs4)c2c1N)CN(Cc1cccnc1)C3 [Compound 20, 3-Amino-6-pyridin-3-ylmethyl-4-thiophen-2-yl-6,7-dihydro-5H-1-thia-6,8-diaza-s-indacene-2-carboxylic acid amide]	< 1 µM
NC(=O)c1sc2nc3c(c(-c4cccs4)c2c1N)CN(Cc1ccccc1)C3 [Compound 21, 3-Amino-6-benzyl-4-thiophen-2-yl-6,7-dihydro-5H-1-thia-6,8-diaza-s-indacene-2-carboxylic acid amide]	1 to 10 µM
Cc1ccccc1CN1Cc2nc3sc(C(N)=O)c(N)c3c(-c3cccs3)c2C1 [Compound 22, 3-Amino-6-(2-methyl-benzyl)-4-thiophen-2-yl-6,7-dihydro-5H-1-thia-6,8-diaza-s-indacene-2-carboxylic acid amide]	1 to 10 µM
NC(=O)c1sc2nc3c(c(-c4cccs4)c2c1N)CN(Cc1cccc(F)c1)C3 [Compound 23, 3-Amino-6-(3-fluoro-benzyl)-4-thipohen-2-yl-6,7-dihydro-5H-1-thia-6,8-diaza-s-indacene-2-carboxylic acid amide]	> 10 µM
COc1cc(CN2Cc3nc4sc(C(N)=O)c(N)c4c(-c4cccs4)c3C2)cc(OC)c1 [Compound 24, 3-Amino-6-(3,5-dimethoxy-benzyl)-4-thiophen-2-yl-6,7-dihydro-5H-1-thia-6,8-diaza-s-indacene-2-carboxylic acid amide]	> 10 µM
NC(=O)c1sc2nc3c(c(-c4cccs4)c2c1N)CN(CCCN1CCN(c2ncccn2)CC1)C3 [Compound 25, 3-Amino-6-[3-(4-pyrimidin-2-yl-piperazin-1-yl)-propyl]-4-thiophen-2-yl-6,7-dihydro-5H-1-thia-6,8-diaza-s-indacene-2-carboxylicacid amide]	> 10 µM
